Results on 27 compounds are retold here after patent publication US12168646B2, “Aryl hydrocarbon receptor agonists and uses thereof” (NEXYS THERAPEUTICS, INC., priority 2022, dated 2024).

The target in one data set is T1, AhR (Homo sapiens, UniProt P35869).
T1 construct: HT29-Lucia AhR cells were purchased from Invivogen (cat #ht21-ahr); host or cells: HT29-Lucia AhR cells
T1 sequence (P35869 11-848): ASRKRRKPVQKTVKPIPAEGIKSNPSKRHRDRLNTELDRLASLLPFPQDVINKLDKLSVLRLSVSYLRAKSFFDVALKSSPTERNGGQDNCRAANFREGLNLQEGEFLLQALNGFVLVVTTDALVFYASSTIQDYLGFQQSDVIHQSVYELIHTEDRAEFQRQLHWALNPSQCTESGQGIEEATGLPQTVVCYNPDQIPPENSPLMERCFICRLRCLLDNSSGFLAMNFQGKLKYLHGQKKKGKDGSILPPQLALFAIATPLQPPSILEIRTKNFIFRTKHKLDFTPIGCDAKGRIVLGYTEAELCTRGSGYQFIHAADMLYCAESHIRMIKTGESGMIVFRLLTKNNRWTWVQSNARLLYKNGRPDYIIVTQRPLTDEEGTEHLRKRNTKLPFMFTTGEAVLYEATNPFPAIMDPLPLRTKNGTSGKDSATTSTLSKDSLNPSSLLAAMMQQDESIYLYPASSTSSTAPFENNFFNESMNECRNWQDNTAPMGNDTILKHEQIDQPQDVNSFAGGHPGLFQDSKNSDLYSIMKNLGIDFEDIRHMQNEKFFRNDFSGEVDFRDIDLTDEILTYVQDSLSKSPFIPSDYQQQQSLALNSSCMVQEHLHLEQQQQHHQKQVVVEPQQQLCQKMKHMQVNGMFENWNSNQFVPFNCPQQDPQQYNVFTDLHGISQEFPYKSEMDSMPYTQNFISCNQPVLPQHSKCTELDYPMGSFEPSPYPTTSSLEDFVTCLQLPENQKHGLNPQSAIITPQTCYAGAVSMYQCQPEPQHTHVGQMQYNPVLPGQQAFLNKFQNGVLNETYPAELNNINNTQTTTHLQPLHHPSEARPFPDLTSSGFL
The data set is described as follows: HT29 AhR Reporter Assay (HT29-Lucia AhR cells, QUANTI-Luc luminescence). The data set is classed as cell-based. The note with it: for EC50: 18-24 h, EC50 = concentration to reach half of maximum efficacy of reference compound VAF347; for Emax: read-out: HT29 AhR % efficacy. As for the experimental part:
Biological Data 1: HT29 AhR Reporter Assay HT29-Lucia AhR cells were purchased from Invivogen (cat #ht21-ahr). […] The cell suspension was removed from growth medium and rinsed gently with pre-warmed PBS (10 mL). Pre-warmed Trypsin (1 mL) was added, and cells were held at 30° C. for about 5 min and then detached by pipette. The dissociated cell clumps were gently pipetted up and down. The cells were resuspended in pre-warmed detection medium (DMEM, 10% FBS (30 min at 56° C.), 100 U/ml penicillin, 100 μg/ml streptomycin, and test article or vehicle) and counted. A cell suspension of ˜500,000 cells/mL in Detection medium was prepared. […] Samples (20 μL/well) were pipetted into a 96-well white (opaque), and QUANTI-Luc™ (50 μL/well) was added. The plate was gently tapped and then read in a luminometer (0.1 s reading time).
On the technique in general: A reporter such as luciferase makes a cellular process visible.

Data set [1] in a line: Stability in human feces (azo reduction in feces homogenate). The format is in vitro ADME. The note with it: pH 6.8, 37° C., under nitrogen. As for the experimental part: Biological Data 2: Stability in Human Feces
Accordingly, selected azo compounds of the invention were exposed to human feces under conditions suitable to promote azo reduction.
The human feces from two donors were homogenized in isotonic phosphate buffered saline (pH 6.8) with a ratio of 1:10 (w/v). The tubes were sealed using sealing film. Test article was dissolved in isotonic phosphate buffer (pH 6.8) to form a working solution of 20 μM (if the solubility allows). An aliquot of working solution (50 μL) was added to the human feces homogenate (50 μL) for each time point (0, 1, 2, 4, 6 and 24 h) in duplicate and placed under nitrogen for about 1 minute in order to exhaust air, and then incubated at 37° C. After incubation at each pre-set time point, 1000 μL acetonitrile containing internal standard w as added to each tube to quench reaction. Samples were vortexed and centrifuged at 3700 rpm for 10 min and the supernatant was transferred for analysis (and diluted where necessary). The concentrations of test article and its metabolite (example 3) in the supernatants were determined using LC-MS/MS method. Sulfasalazine was used as a positive control. All incubations were performed in duplicate.

Where [2] appears, read: HT29-Lucia AhR cells, % efficacy = 100%*(TA-BG)/(Ref-BG), Ref = VAF347.

Where two headings read alike, the source gives them in different places.

On to `Nc1ccc(-c2ccnc(Nc3ccc(C(F)(F)F)cc3)n2)cc1` [Example 1, 4-(4-aminophenyl)-N-(4-(trifluoromethyl)phenyl)pyrimidin-2-amine], for which the EC50 (commonly the concentration that produces a half-maximal response) on AhR (HT29-Lucia AhR cells) is more than 30 µM. Also, on AhR, the Emax came to 16%.
`Nc1ccccc1-c1ccnc(Nc2ccc(C(F)(F)F)cc2)n1` [Example 3, 4-(2-aminophenyl)-N-(4-(trifluoromethyl)phenyl)pyrimidin-2-amine] registered an EC50 at AhR (HT29-Lucia AhR cells) of 1.33 µM. The Emax on AhR came out at 165%.
The matching figures for `Nc1ccc(Cl)cc1-c1ccnc(Nc2ccc(C(F)(F)F)cc2)n1` [Example 4, 4-(2-amino-5-chlorophenyl)-N-(4-(trifluoromethyl)phenyl)pyrimidin-2-amine]: more than 30 µM and 18%.
In turn, `Nc1ccc(-c2ccnc(Nc3ccc(C(F)(F)F)cc3)n2)cc1Cl` [Example 5, 4-(4-amino-3-chlorophenyl)-N-(4-(trifluoromethyl)phenyl)pyrimidin-2-amine] came in with an EC50 at AhR (HT29-Lucia AhR cells) of 20 µM. For the same compound, the Emax at AhR (setting [2]) worked out at 46%.
Taken in the same sequence, the figures for `Nc1cc(Cl)cc(-c2ccnc(Nc3ccc(C(F)(F)F)cc3)n2)c1` [Example 6, 4-(3-amino-5-chlorophenyl)-N-(4-(trifluoromethyl)phenyl)pyrimidin-2-amine] were more than 30 µM and 15%.
The matching figures for `Nc1ccc(C(=O)O)c(-c2ccnc(Nc3ccc(C(F)(F)F)cc3)n2)c1` [Example 7, 4-amino-2-(2-((4-(trifluoromethyl)phenyl)amino)pyrimidin-4-yl)benzoic acid]: more than 30 µM and 29%.
In the case of `Nc1ccc(-c2ccnc(Nc3ccc(C(F)(F)F)cc3)n2)c(C(=O)O)c1` [Example 8, 5-amino-2-(2-((4-(trifluoromethyl)phenyl)amino)pyrimidin-4-yl)benzoic acid], on AhR (HT29-Lucia AhR cells), the EC50 is more than 30 µM. In addition, the Emax on AhR (setting [2]) was 13%.
In turn, `Nc1cccc(C(=O)O)c1-c1ccnc(Nc2ccc(C(F)(F)F)cc2)n1` [Example 9] yielded an EC50 on AhR (HT29-Lucia AhR cells) of 2.62 µM. Further, the Emax at AhR was 89%.
In turn, `Nc1ccc(CC(=O)O)c(-c2ccnc(Nc3ccc(C(F)(F)F)cc3)n2)c1` [Example 10, 2-(4-amino-2-(2-((4-(trifluoromethyl)phenyl)amino)pyrimidin-4-yl)phenyl)acetic acid] showed an EC50 at AhR (HT29-Lucia AhR cells) of 9.24 µM. The Emax on AhR (setting [2]) amounted to 69%.
The compound `Nc1ccc(O)c(-c2ccnc(Nc3ccc(C(F)(F)F)cc3)n2)c1` [Example 11, 4-amino-2-(2-((4-(trifluoromethyl)phenyl)amino)pyrimidin-4-yl)phenol] returned an EC50 at AhR (HT29-Lucia AhR cells) of more than 30 µM. Moreover, the Emax on AhR is -17%.
The matching figures for `Nc1ccc(O)cc1-c1ccnc(Nc2ccc(C(F)(F)F)cc2)n1` [Example 12, 4-amino-3-(2-((4-(trifluoromethyl)phenyl)amino)pyrimidin-4-yl)phenol]: more than 30 µM and 17%.
With `CS(=O)(=O)c1ccc(N)c(-c2ccnc(Nc3ccc(C(F)(F)F)cc3)n2)c1` [Example 13, 4-(2-amino-5-(methylsulfonyl)phenyl)-N-(4-(trifluoromethyl)phenyl)pyrimidin-2-amine], on AhR (HT29-Lucia AhR cells), the EC50 is more than 30 µM. The Emax on AhR was 7%.
The matching figures for `CS(=O)(=O)c1ccc(N)cc1-c1ccnc(Nc2ccc(C(F)(F)F)cc2)n1` [Example 14, 4-(5-amino-2-(methylsulfonyl)phenyl)-N-(4-(trifluoromethyl)phenyl)pyrimidin-2-amine]: 16.9 µM and 51%.
On to `Nc1cccc(-c2ccnc(Nc3ccc(C(=O)O)cc3)n2)c1` [Example 18, 4-((4-(3-aminophenyl)pyrimidin-2-yl)amino)benzoic acid], for which the EC50 at AhR (HT29-Lucia AhR cells) was more than 30 µM. Further, on AhR (setting [2]), the Emax came to 10%.
`Nc1cccc(-c2ccnc(Nc3cccc(C(=O)O)c3)n2)c1` [Example 20, 3-((4-(3-aminophenyl)pyrimidin-2-yl)amino)benzoic acid] returned an EC50 at AhR (HT29-Lucia AhR cells) of more than 30 µM. At AhR (setting [2]), the Emax amounted to 13%.
The matching figures for `Nc1cc(C(F)(F)F)ccc1Nc1nccc(-c2cccc(Cl)c2)n1` [Example 21, N^1-(4-(3-chlorophenyl)pyrimidin-2-yl)-4-(trifluoromethyl)benzene-1,2-diamine]: more than 30 µM and 27%.
The matching figures for `Nc1cc(Nc2nccc(-c3cccc(Cl)c3)n2)ccc1C(F)(F)F` [Example 22, N^1-(4-(3-chlorophenyl)pyrimidin-2-yl)-4-(trifluoromethyl)benzene-1,3-diamine]: 0.018 µM and 124%.
At AhR (HT29-Lucia AhR cells), `Nc1cc(Nc2nccc(-c3ccccc3C(=O)O)n2)ccc1C(F)(F)F` [Example 23, 2-(2-((3-amino-4-(trifluoromethyl)phenyl)amino)pyrimidin-4-yl)benzoic acid] had a concentration giving a half-maximal response (EC50) of more than 30 µM. The Emax on AhR (setting [2]) was 33%.
On AhR (HT29-Lucia AhR cells), `Nc1cc(Nc2nccc(-c3cccc(C(=O)O)c3)n2)ccc1C(F)(F)F` [Example 24, 3-(2-((3-amino-4-(trifluoromethyl)phenyl)amino)pyrimidin-4-yl)benzoic acid] registered an EC50 of more than 30 µM. In addition, the Emax on AhR (setting [2]) is 5%.
The matching figures for `Nc1ccc(Nc2nccc(-c3ccccc3O)n2)cc1` [Example 25, 2-(2-((4-aminophenyl)amino)pyrimidin-4-yl)phenol]: 6.92 µM and 21%.
Taken in the same sequence, the figures for `Nc1cccc(Nc2nccc(-c3ccccc3O)n2)c1` [Example 26, 2-(2-((3-aminophenyl)amino)pyrimidin-4-yl)phenol] were more than 30 µM and 141%.
For the compound `O=C(O)c1cc(/N=N/c2cccc(-c3ccnc(Nc4ccc(C(F)(F)F)cc4)n3)c2)ccc1O` [Example 27, (E)-2-hydroxy-5-((3-(2-((4-(trifluoromethyl)phenyl)amino)pyrimidin-4-yl)phenyl)diazenyl)benzoic acid], the “% of parent remaining after incubation for 6 h” value in data set [1] is listed as 74%.
Same read-out and setting: the same measure for `O=C(O)c1cc(/N=N/c2ccccc2-c2ccnc(Nc3ccc(C(F)(F)F)cc3)n2)ccc1O` [Example 32, (E)-2-hydroxy-5-((2-(2-((4-(trifluoromethyl)phenyl)amino)pyrimidin-4-yl)phenyl)diazenyl)benzoic acid]: 49%; for `Oc1ccc(/N=N/c2ccccc2-c2ccnc(Nc3ccc(C(F)(F)F)cc3)n2)cc1` [Example 33, (E)-4-((2-(2-((4-(trifluoromethyl)phenyl)amino)pyrimidin-4-yl)phenyl)diazenyl)phenol]: 59%.
Still for that read-out and setting: to `O=C(O)c1cccc(/N=N/c2ccccc2-c2ccnc(Nc3ccc(C(F)(F)F)cc3)n2)c1` [Example 34, (E)-3-((2-(2-((4-(trifluoromethyl)phenyl)amino)pyrimidin-4-yl)phenyl)diazenyl)benzoic acid] belongs 95%.
The same measure, in the same setting: to `O=C(O)c1ccc(O)c(/N=N/c2ccccc2-c2ccnc(Nc3ccc(C(F)(F)F)cc3)n2)c1` [Example 36, (E)-4-Hydroxy-3-((2-(2-((4-(trifluoromethyl)phenyl)amino)pyrimidin-4-yl)phenyl)diazenyl)benzoic acid] belongs 19%.
In the case of `FC(F)(F)c1ccc(Nc2nccc(-c3cccc(Cl)c3)n2)cc1` [VAF347, reference compound], the EC50 at AhR (HT29-Lucia AhR cells) is 0.026 µM. For the same compound, the Emax at AhR (setting [2]) amounted to 100%.
